Results as given in the supplement of paper PMC10307832.

How the values were obtained:
Assay in all cases: relative viability (nuclei count vs DMSO), 5 days (fraction); higher = more cells survive
[1] = compound: COc1ncc(-c2ccc3nccc(-c4ccnnc4)c3c2)cc1NS(=O)(=O)c1ccc(F)cc1F [Omipalisib] + CC1(C)CCC(c2ccc(Cl)cc2)=C(CN2CCN(c3ccc(C(=O)NS(=O)(=O)c4ccc(N[C@H](CCN5CCOCC5)CSc5ccccc5)c(S(=O)(=O)C(F)(F)F)c4)cc3)CC2)C1 [Navitoclax] (partner 0.5 µM)
Method in brief: (§1)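 Relative viability equals treated-well nuclei counts divided by vehicle-well nuclei counts. Counts came from 4× images of lung cancer cell lines grown in 1536-well plates for 5 days after pin-tool dosing on the day after seeding. Dosing used one drug alone or a fixed anchor-drug dose plus five library-drug doses (not always all listed) in √10 steps, and values are medians of duplicate plates.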

[2] = compound: COc1ncc(-c2ccc3nccc(-c4ccnnc4)c3c2)cc1NS(=O)(=O)c1ccc(F)cc1F [Omipalisib] + Nc1nc2[nH]cc(CCc3ccc(C(=O)N[C@@H](CCC(=O)O)C(=O)O)cc3)c2c(=O)[nH]1 [Pemetrexed] (partner 0.2 µM)
Method in brief: as §1

[3] = compound: COc1ncc(-c2ccc3nccc(-c4ccnnc4)c3c2)cc1NS(=O)(=O)c1ccc(F)cc1F [Omipalisib] + O=C(c1cc(Cc2n[nH]c(=O)c3ccccc23)ccc1F)N1CCN(C(=O)C2CC2)CC1 [Olaparib] (partner 8 µM)
Method in brief: as §1

[4] = compound: COc1ncc(-c2ccc3nccc(-c4ccnnc4)c3c2)cc1NS(=O)(=O)c1ccc(F)cc1F [Omipalisib] + COc1cccc2cc(-c3nc([C@H]4CC[C@H](C(=O)O)CC4)n4ncnc(N)c34)[nH]c12 [OSI-027] (partner 0.5 µM)
Method in brief: as §1

[5] = compound: COc1ncc(-c2ccc3nccc(-c4ccnnc4)c3c2)cc1NS(=O)(=O)c1ccc(F)cc1F [Omipalisib] + CCNC(=O)c1noc(-c2cc(C(C)C)c(O)cc2O)c1-c1ccc(CN2CCOCC2)cc1 [Luminespib] (partner 0.01 µM)
Method in brief: as §1

[6] = compound: COc1ncc(-c2ccc3nccc(-c4ccnnc4)c3c2)cc1NS(=O)(=O)c1ccc(F)cc1F [Omipalisib] + Cc1nc(NC(=O)N2CCC[C@H]2C(N)=O)sc1-c1ccnc(C(C)(C)C(F)(F)F)c1 [Alpelisib] (partner 2 µM)
Method in brief: as §1

## NCI-H2228
[1]; first compound 0.0003 µM
  relative viability: 0.972
[1]; first compound 0.003 µM
  relative viability: 0.581
[1]; first compound 0.03 µM
  relative viability: 0.204
[2]; first compound 0.0003 µM
  relative viability: 0.351
[2]; first compound 0.003 µM
  relative viability: 0.306
[2]; first compound 0.03 µM
  relative viability: 0.221
[3]; first compound 0.0003 µM
  relative viability: 0.698
[3]; first compound 0.003 µM
  relative viability: 0.441
[3]; first compound 0.03 µM
  relative viability: 0.179
[4]; first compound 0.0003 µM
  relative viability: 0.506
[4]; first compound 0.003 µM
  relative viability: 0.19
[4]; first compound 0.03 µM
  relative viability: 0.139
[5]; first compound 0.0003 µM
  relative viability: 0.131
[5]; first compound 0.003 µM
  relative viability: 0.0865
[5]; first compound 0.03 µM
  relative viability: 0.11
[6]; first compound 0.0003 µM
  relative viability: 0.764
[6]; first compound 0.003 µM
  relative viability: 0.657
[6]; first compound 0.03 µM
  relative viability: 0.251

## NCI-H2405
[1]; first compound 0.0003 µM
  relative viability: 0.812
[1]; first compound 0.003 µM
  relative viability: 0.618
[1]; first compound 0.03 µM
  relative viability: 0.323
[2]; first compound 0.0003 µM
  relative viability: 1.12
[2]; first compound 0.003 µM
  relative viability: 0.718
[2]; first compound 0.03 µM
  relative viability: 0.444
[3]; first compound 0.0003 µM
  relative viability: 0.854
[3]; first compound 0.003 µM
  relative viability: 0.679
[3]; first compound 0.03 µM
  relative viability: 0.388
[4]; first compound 0.0003 µM
  relative viability: 0.661
[4]; first compound 0.003 µM
  relative viability: 0.359
[4]; first compound 0.03 µM
  relative viability: 0.296
[5]; first compound 0.0003 µM
  relative viability: 0.661
[5]; first compound 0.003 µM
  relative viability: 0.392
[5]; first compound 0.03 µM
  relative viability: 0.298
[6]; first compound 0.0003 µM
  relative viability: 0.79
[6]; first compound 0.003 µM
  relative viability: 0.633
[6]; first compound 0.03 µM
  relative viability: 0.359

## SK-LU-1
[1]; first compound 0.0003 µM
  relative viability: 0.926
[1]; first compound 0.003 µM
  relative viability: 0.237
[1]; first compound 0.03 µM
  relative viability: 0.625
[2]; first compound 0.0003 µM
  relative viability: 1.04
[2]; first compound 0.003 µM
  relative viability: 0.834
[2]; first compound 0.03 µM
  relative viability: 0.751
[3]; first compound 0.0003 µM
  relative viability: 0.455
[3]; first compound 0.003 µM
  relative viability: 0.304
[3]; first compound 0.03 µM
  relative viability: 0.366
[4]; first compound 0.0003 µM
  relative viability: 0.373
[4]; first compound 0.003 µM
  relative viability: 0.207
[4]; first compound 0.03 µM
  relative viability: 0.183
[5]; first compound 0.0003 µM
  relative viability: 0.206
[5]; first compound 0.003 µM
  relative viability: 0.199
[5]; first compound 0.03 µM
  relative viability: 0.19
[6]; first compound 0.0003 µM
  relative viability: 0.937
[6]; first compound 0.003 µM
  relative viability: 0.838
[6]; first compound 0.03 µM
  relative viability: 0.642

## CAL-12T
[1]; first compound 0.0003 µM
  relative viability: 1.1
[1]; first compound 0.003 µM
  relative viability: 1.17
[1]; first compound 0.03 µM
  relative viability: 0.466
[2]; first compound 0.0003 µM
  relative viability: 1.17
[2]; first compound 0.003 µM
  relative viability: 1.15
[2]; first compound 0.03 µM
  relative viability: 0.721
[3]; first compound 0.0003 µM
  relative viability: 0.76
[3]; first compound 0.003 µM
  relative viability: 0.691
[3]; first compound 0.03 µM
  relative viability: 0.349
[4]; first compound 0.0003 µM
  relative viability: 0.753
[4]; first compound 0.003 µM
  relative viability: 0.404
[4]; first compound 0.03 µM
  relative viability: 0.232
[5]; first compound 0.0003 µM
  relative viability: 0.319
[5]; first compound 0.003 µM
  relative viability: 0.194
[5]; first compound 0.03 µM
  relative viability: 0.107
[6]; first compound 0.0003 µM
  relative viability: 0.989
[6]; first compound 0.003 µM
  relative viability: 0.95
[6]; first compound 0.03 µM
  relative viability: 0.774

## NCI-H1975
[1]; first compound 0.0003 µM
  relative viability: 1.03
[1]; first compound 0.003 µM
  relative viability: 0.635
[1]; first compound 0.03 µM
  relative viability: 0.24
[2]; first compound 0.0003 µM
  relative viability: 0.35
[2]; first compound 0.003 µM
  relative viability: 0.3
[2]; first compound 0.03 µM
  relative viability: 0.22
[3]; first compound 0.0003 µM
  relative viability: 0.882
[3]; first compound 0.003 µM
  relative viability: 0.521
[3]; first compound 0.03 µM
  relative viability: 0.239
[4]; first compound 0.0003 µM
  relative viability: 0.772
[4]; first compound 0.003 µM
  relative viability: 0.415
[4]; first compound 0.03 µM
  relative viability: 0.159
[5]; first compound 0.0003 µM
  relative viability: 0.142
[5]; first compound 0.003 µM
  relative viability: 0.194
[5]; first compound 0.03 µM
  relative viability: 0.2
[6]; first compound 0.0003 µM
  relative viability: 0.695
[6]; first compound 0.003 µM
  relative viability: 0.518
[6]; first compound 0.03 µM
  relative viability: 0.253

## NCI-H1755
[1]; first compound 0.0003 µM
  relative viability: 1.01
[1]; first compound 0.003 µM
  relative viability: 0.848
[1]; first compound 0.03 µM
  relative viability: 0.368
[2]; first compound 0.0003 µM
  relative viability: 0.504
[2]; first compound 0.003 µM
  relative viability: 0.393
[2]; first compound 0.03 µM
  relative viability: 0.402
[3]; first compound 0.0003 µM
  relative viability: 0.932
[3]; first compound 0.003 µM
  relative viability: 0.715
[3]; first compound 0.03 µM
  relative viability: 0.362
[4]; first compound 0.0003 µM
  relative viability: 0.707
[4]; first compound 0.003 µM
  relative viability: 0.501
[4]; first compound 0.03 µM
  relative viability: 0.448
[5]; first compound 0.0003 µM
  relative viability: 0.445
[5]; first compound 0.003 µM
  relative viability: 0.292
[5]; first compound 0.03 µM
  relative viability: 0.375
[6]; first compound 0.0003 µM
  relative viability: 0.949
[6]; first compound 0.003 µM
  relative viability: 0.878
[6]; first compound 0.03 µM
  relative viability: 0.514

## HCC-44
[1]; first compound 0.0003 µM
  relative viability: 0.848
[1]; first compound 0.003 µM
  relative viability: 0.63
[1]; first compound 0.03 µM
  relative viability: 0.27
[2]; first compound 0.0003 µM
  relative viability: 0.68
[2]; first compound 0.003 µM
  relative viability: 0.682
[2]; first compound 0.03 µM
  relative viability: 0.694
[3]; first compound 0.0003 µM
  relative viability: 1.01
[3]; first compound 0.003 µM
  relative viability: 0.974
[3]; first compound 0.03 µM
  relative viability: 0.534
[4]; first compound 0.0003 µM
  relative viability: 0.524
[4]; first compound 0.003 µM
  relative viability: 0.344
[4]; first compound 0.03 µM
  relative viability: 0.338
[5]; first compound 0.0003 µM
  relative viability: 1.08
[5]; first compound 0.003 µM
  relative viability: 1.09
[5]; first compound 0.03 µM
  relative viability: 0.295
[6]; first compound 0.0003 µM
  relative viability: 0.742
[6]; first compound 0.003 µM
  relative viability: 0.619
[6]; first compound 0.03 µM
  relative viability: 0.29

## NCI-H596
[1]; first compound 0.0003 µM
  relative viability: 0.849
[1]; first compound 0.003 µM
  relative viability: 0.519
[1]; first compound 0.03 µM
  relative viability: 0.174
[2]; first compound 0.0003 µM
  relative viability: 0.497
[2]; first compound 0.003 µM
  relative viability: 0.586
[2]; first compound 0.03 µM
  relative viability: 0.407
[3]; first compound 0.0003 µM
  relative viability: 0.639
[3]; first compound 0.003 µM
  relative viability: 0.604
[3]; first compound 0.03 µM
  relative viability: 0.402
[4]; first compound 0.0003 µM
  relative viability: 0.726
[4]; first compound 0.003 µM
  relative viability: 0.352
[4]; first compound 0.03 µM
  relative viability: 0.309
[5]; first compound 0.0003 µM
  relative viability: 0.98
[5]; first compound 0.003 µM
  relative viability: 0.657
[5]; first compound 0.03 µM
  relative viability: 0.285
[6]; first compound 0.0003 µM
  relative viability: 0.491
[6]; first compound 0.003 µM
  relative viability: 0.363
[6]; first compound 0.03 µM
  relative viability: 0.395
